In one assay the target is T1, hM4 receptors (Homo sapiens, UniProt P08173).
T1 construct: expressed in transfected cells; host or cells: CHO cells
T1 sequence (P08173 1-479): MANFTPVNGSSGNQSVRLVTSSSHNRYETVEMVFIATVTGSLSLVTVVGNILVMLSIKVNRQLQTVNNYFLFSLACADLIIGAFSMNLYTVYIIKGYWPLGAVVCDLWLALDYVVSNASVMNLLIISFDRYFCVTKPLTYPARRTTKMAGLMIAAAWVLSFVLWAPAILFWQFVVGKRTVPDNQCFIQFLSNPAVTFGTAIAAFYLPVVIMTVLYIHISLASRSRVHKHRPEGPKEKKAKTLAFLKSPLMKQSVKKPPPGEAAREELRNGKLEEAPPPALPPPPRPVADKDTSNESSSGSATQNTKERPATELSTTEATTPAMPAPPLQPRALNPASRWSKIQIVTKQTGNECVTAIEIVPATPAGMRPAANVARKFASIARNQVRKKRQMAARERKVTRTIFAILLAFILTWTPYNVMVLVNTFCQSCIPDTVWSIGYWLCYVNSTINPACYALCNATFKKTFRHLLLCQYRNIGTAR
Briefly: Human M4 PAM pERK assay. It counts as cell-based. The conditions noted are these: PAM mode. The method, then:
(§1) Chinese hamster ovary (CHO) cells expressing either hM4 or rM4 receptors were frozen in assay ready vials (5×10^6 cells/vial) after bulking-up in culture. The day before an assay, vial(s) were thawed and cells seeded in 384 well white proxiplates at 1000/well for hM4 cells and at 2000/well for rM4 cells, in 10 μL of growth media (Hams/F12 with glutamax and 10% FCS) and incubated overnight at 37° C./5% CO2.
(§2) On the following morning, the growth media was removed by ‘flicking out’ over a bin, patting the inverted plate onto tissue, and then replacing with 10 μL of wash media (Hams/F12 with glutamax and 8 mM HEPES, NB: serum free). Then, the wash media was removed in the same way and replaced with 8 μL/well of the serum free media. Plates were then re-incubated for a further 4 hours at 37° C./5% CO2.
(§3) Compounds for testing were solubilized to 10 mM in DMSO and compound addition plates, consisting of ten-point concentration response curves (CRC) in duplicate points (10 μM top concentration, […]), were prepared by acoustic dispensing and the compound management group.
(§4) After the 4-hour incubation in serum free media, a 4 μL aliquot of the 3× compound solution containing an EC20 of acetylcholine (10 nM final concentration) was added to the cell plate using a 384 well plate to plate transfer. Then, the plate lid was replaced, and the cells incubated for 5 mins at 37° C./5% CO2. Following this final incubation, all cellular processes were stopped by the addition of 4 μL/well of lysis and blocking buffer and plates were incubated for 30 minutes at RT on an orbital shaker (gentle setting). Then, a final addition of 4 μL/well of antibody detection mix, containing both the Europium-Cryptate (donor) and d2 (acceptor) tagged detection components, was added followed by a further 2-hour incubation at RT, and then the plate was read using a TR-FRET (time resolved fluorescence resonance energy transfer) based protocol.

A further assay concerns the target T2, rM4 receptors (Rattus norvegicus, UniProt P08485).
T2 construct: expressed in transfected cells; host or cells: CHO cells
T2 sequence (P08485 1-478): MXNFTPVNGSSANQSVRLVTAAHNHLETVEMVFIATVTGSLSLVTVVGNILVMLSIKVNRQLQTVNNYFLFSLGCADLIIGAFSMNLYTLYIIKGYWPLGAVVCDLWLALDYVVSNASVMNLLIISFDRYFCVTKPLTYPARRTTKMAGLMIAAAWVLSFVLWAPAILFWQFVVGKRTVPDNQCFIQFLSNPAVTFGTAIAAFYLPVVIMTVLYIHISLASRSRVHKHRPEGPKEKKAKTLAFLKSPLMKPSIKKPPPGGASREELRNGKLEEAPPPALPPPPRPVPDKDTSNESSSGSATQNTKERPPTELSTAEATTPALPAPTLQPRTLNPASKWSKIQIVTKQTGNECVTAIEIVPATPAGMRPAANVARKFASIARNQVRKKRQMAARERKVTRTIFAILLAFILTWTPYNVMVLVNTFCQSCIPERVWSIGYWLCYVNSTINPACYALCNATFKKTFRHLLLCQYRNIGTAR
Briefly: Rat M4 PAM pERK assay. The class given is cell-based. As to conditions: PAM mode. The method, then: as §1, §2, §3, §4

In the case of `Cc1cc(=O)n(C)c2c1C(C)N(C(=O)c1ccc3nc(C(F)(F)F)sc3c1)C2` (single isomer, unassigned) [Compound I-101], the EC50 – broadly, the concentration giving half of the maximal effect – was 100 to 500 nM at hM4 receptors and greater than 2000 nM at rM4 receptors.
With `Cc1cc(=O)n(C)c2c1CN(C(=O)c1cnn(C)c1)C2C` (single isomer, unassigned) [Compound I-107, 1,4,7-Trimethyl-6-(1-methyl-1H-pyrazole-4-carbonyl)-1,5,6,7-tetrahydro-2H-pyrrolo[3,4-b]pyridin-2-one], the EC50 at hM4 receptors and on rM4 receptors was greater than 2000 nM each time.
As to `Cc1c2c(n(C)c(=O)c1Cl)CN(C(=O)c1cnn(C)c1)C2` [Compound I-2], the EC50 on hM4 receptors is less than 100 nM; on rM4 receptors it was greater than 2000 nM.
As to `Cc1c2c(n(C)c(=O)c1Cl)CN(C(=O)c1cn(C)cn1)C2` [Compound I-4], the EC50 at hM4 receptors was 500 to 2000 nM; on rM4 receptors, greater than 2000 nM.
In the case of `Cc1c2c(n(C)c(=O)c1Cl)CN(C(=O)c1cnn(CC(C)C)c1)C2` [Compound I-5], the EC50 at hM4 receptors was 500 to 2000 nM; on rM4 receptors, greater than 2000 nM.
Taken in the same sequence, the figures for `Cc1c2c(n(C)c(=O)c1Cl)CN(C(=O)c1ccc(C(C)(C)C)s1)C2` [Compound I-7] were 500 to 2000 nM and greater than 2000 nM.
For `Cc1c2c(n(C)c(=O)c1Cl)CN(C(=O)c1cnn(C(C)C)c1)C2` [Compound I-10], the results for the EC50 at hM4 receptors and on rM4 receptors were 100 to 500 nM and greater than 2000 nM, respectively.
Turning to `Cc1c2c(n(C)c(=O)c1Cl)CN(C(=O)c1cn(C(F)(F)F)cn1)C2` [Compound I-15], the EC50 at hM4 receptors was 100 to 500 nM; at rM4 receptors, greater than 2000 nM.
As for `Cc1c2c(n(C)c(=O)c1Cl)CN(C(=O)c1ccn(C(F)(F)F)n1)C2` [Compound I-16], the EC50 was 100 to 500 nM on hM4 receptors and greater than 2000 nM on rM4 receptors.
With `Cc1c2c(n(C)c(=O)c1Cl)CN(C(=O)c1cnn(Cc3ccccc3)c1)C2` [Compound I-23], the EC50 was in the range of 100 to 500 nM at hM4 receptors and 500 to 2000 nM on rM4 receptors.
Turning to `Cc1c2c(n(C)c(=O)c1Cl)CN(C(=O)c1cn3c(n1)COCC3)C2` [Compound I-25], the half-maximal effective concentration (EC50) at hM4 receptors was 500 to 2000 nM; at rM4 receptors, greater than 2000 nM.
As to `Cc1c2c(n(C)c(=O)c1Cl)CN(C(=O)c1cnn(CC3CC3)c1)C2` [Compound I-27], the EC50 is 500 to 2000 nM on hM4 receptors and greater than 2000 nM at rM4 receptors.
With `Cc1c2c(n(C)c(=O)c1Cl)CN(C(=O)c1ncc3ccccn13)C2` [Compound I-31], the EC50 on hM4 receptors and on rM4 receptors was greater than 2000 nM in each case.
For `Cc1c2c(n(C)c(=O)c1Cl)CN(C(=O)c1cn3c(n1)CCC3)C2` [Compound I-33], the EC50 was 100 to 500 nM at hM4 receptors and greater than 2000 nM on rM4 receptors.
As for `Cc1c2c(n(C)c(=O)c1Cl)CN(C(=O)c1cnc(CC(C)C)s1)C2` [Compound I-34], the EC50 lay in the range of 100 to 500 nM on hM4 receptors and 500 to 2000 nM at rM4 receptors.
`Cc1c2c(n(C)c(=O)c1Cl)CN(C(=O)c1cnc(C3CCC3)s1)C2` [Compound I-35]: the EC50 at hM4 receptors is 100 to 500 nM; on rM4 receptors it was greater than 2000 nM.
Consider `Cc1c2c(n(C)c(=O)c1Cl)CN(C(=O)c1cnn3c1CCC3)C2` [Compound I-37], for which the EC50 at hM4 receptors and on rM4 receptors was greater than 2000 nM each time.
Consider `COCc1ncc(C(=O)N2Cc3c(C)c(Cl)c(=O)n(C)c3C2)s1` [Compound I-38], for which the EC50 was 100 to 500 nM at hM4 receptors and greater than 2000 nM on rM4 receptors.
`Cc1c2c(n(C)c(=O)c1Cl)CN(C(=O)c1cnc(CC(F)(F)F)s1)C2` [Compound I-39]: the EC50 on hM4 receptors is 500 to 2000 nM; at rM4 receptors, greater than 2000 nM.
Taken in the same sequence, the figures for `Cc1c2c(n(C)c(=O)c1Cl)CN(C(=O)c1ccc3nonc3c1)C2` [Compound I-43] were 100 to 500 nM and 500 to 2000 nM.
On to `Cc1c2c(n(C)c(=O)c1Cl)CN(C(=O)c1ccc3ncsc3c1)C2` [Compound I-46], for which the results for the 50% effective concentration (EC50) on hM4 receptors and on rM4 receptors were less than 100 nM and 500 to 2000 nM, respectively.
Consider `Cc1c2c(n(C)c(=O)c1Cl)CN(C(=O)c1ccc3cncn3c1)C2` [Compound I-47], for which the EC50 at hM4 receptors was less than 100 nM; on rM4 receptors it was 500 to 2000 nM.
As to `Cc1c2c(n(C)c(=O)c1Cl)CN(C(=O)c1ccc3c(c1)COC3)C2` [Compound I-50], the EC50 on hM4 receptors and at rM4 receptors was 100 to 500 nM in each case.
`Cc1c2c(n(C)c(=O)c1Cl)CN(C(=O)c1ccc3nc(C4CCC4)sc3c1)C2` [Compound I-51, 3-Chloro-6-(2-cyclobutylbenzo[d]thiazole-6-carbonyl)-1,4-dimethyl-1,5,6,7-tetrahydro-2H-pyrrolo[3,4-b]pyridin-2-one]: the EC50 at hM4 receptors is less than 100 nM; at rM4 receptors, 100 to 500 nM.
For the compound `Cc1c2c(n(C)c(=O)c1Cl)CN(C(=O)c1cnn(CC3(C)COC3)c1)C2` [Compound I-53, 3-Chloro-1,4-dimethyl-6-(1-((3-methyloxetan-3-yl)methyl)-1H-pyrazole-4-carbonyl)-1,5,6,7-tetrahydro-2H-pyrrolo[3,4-b]pyridin-2-one], the EC50 on hM4 receptors and at rM4 receptors was greater than 2000 nM throughout.
In the case of `Cc1c2c(n(C)c(=O)c1Cl)CN(C(=O)c1cnn(CC3COC3)c1)C2` [Compound I-54], the EC50 at hM4 receptors was 100 to 500 nM; at rM4 receptors it was greater than 2000 nM.
Take `Cc1c2c(n(C)c(=O)c1Cl)CN(C(=O)c1cnn(CC3CCCC3)c1)C2` [Compound I-55]: the EC50 was 100 to 500 nM on hM4 receptors and greater than 2000 nM on rM4 receptors.
On to `Cc1c2c(n(C)c(=O)c1Cl)CN(C(=O)c1cnn(CC3CCOC3)c1)C2` (stereo not shown) [Compound I-56], for which the EC50 on hM4 receptors and at rM4 receptors was greater than 2000 nM in each case.
As for `Cc1c2c(n(C)c(=O)c1Cl)CN(C(=O)c1cnn(Cc3ccc(C(F)(F)F)nc3)c1)C2` [Compound I-57], the EC50 at hM4 receptors and on rM4 receptors was greater than 2000 nM each time.
On to `Cc1c2c(n(C)c(=O)c1Cl)CN(C(=O)c1cc(CC(F)(F)F)on1)C2` [Compound I-58, 3-Chloro-1,4-dimethyl-6-(5-(2,2,2-trifluoroethyl)isoxazole-3-carbonyl)-1,5,6,7-tetrahydro-2H-pyrrolo[3,4-b]pyridin-2-one], for which the EC50 on hM4 receptors was 500 to 2000 nM; on rM4 receptors, greater than 2000 nM.
As for `Cc1c2c(n(C)c(=O)c1Cl)CN(C(=O)c1cnn(Cc3cccnc3)c1)C2` [Compound I-59, 3-Chloro-1,4-dimethyl-6-(1-(pyridin-3-ylmethyl)-1H-pyrazole-4-carbonyl)-1,5,6,7-tetrahydro-2H-pyrrolo[3,4-b]pyridin-2-one], the EC50 on hM4 receptors is 500 to 2000 nM; on rM4 receptors, greater than 2000 nM.
Regarding `Cc1c2c(n(C)c(=O)c1Cl)CN(C(=O)c1cnn(Cc3ccncc3)c1)C2` [Compound I-60], the EC50 is 100 to 500 nM at hM4 receptors and greater than 2000 nM at rM4 receptors.
On to `Cc1c2c(n(C)c(=O)c1Cl)CN(C(=O)c1cnn(CC(F)(F)F)c1)C2` [Compound I-61], for which the EC50 is 500 to 2000 nM at hM4 receptors and greater than 2000 nM at rM4 receptors.
As to `Cc1c2c(n(C)c(=O)c1Cl)CN(C(=O)c1cnc(CC3CC3(F)F)s1)C2` (stereo not shown) [Compound I-65], the values for the EC50 on hM4 receptors and on rM4 receptors were less than 100 nM and 500 to 2000 nM, respectively.
Taken in the same sequence, the figures for `Cc1c2c(n(C)c(=O)c1Cl)CN(C(=O)c1cc(C(F)(F)F)n(C)c1)C2` [Compound I-68, 3-Chloro-1,4-dimethyl-6-(1-methyl-5-(trifluoromethyl)-1H-pyrrole-3-carbonyl)-1,5,6,7-tetrahydro-2H-pyrrolo[3,4-b]pyridin-2-one] were less than 100 nM and 100 to 500 nM.
